According to PubChem BioAssay (NCI):
Several values for one entry are separate records, joined by “and”; a condition that tells them apart may be missing. Equal values may be shown once.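 Where inhibition never reached the appropriate level, the endpoint shown equals the highest concentration tested. Otherwise, values were interpolated linearly from a five-concentration, 48-hour dose response in 96-well plates. At the GI50, growth is halved. The concentration for full growth arrest is given as TGI.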

Columns and labels:
Assay in all cases: NCI tumour cell line growth inhibition, 48 h
A549 NSCLC = system: A549 NSCLC
BT-549 breast = system: BT-549 breast
EKVX NSCLC = system: EKVX NSCLC
K-562 leukemia = system: K-562 leukemia
M14 melanoma = system: M14 melanoma
OVCAR-3 ovarian = system: OVCAR-3 ovarian
SF-295 CNS = system: SF-295 CNS
SK-OV-3 ovarian = system: SK-OV-3 ovarian
UO-31 renal = system: UO-31 renal
NCI/ADR-RES ovarian = system: NCI/ADR-RES ovarian

| Compound | GI50 (A549 NSCLC) [µM] | TGI (A549 NSCLC) [µM] | GI50 (BT-549 breast) [µM] | TGI (BT-549 breast) [µM] | GI50 (EKVX NSCLC) [µM] | TGI (EKVX NSCLC) [µM] | GI50 (K-562 leukemia) [µM] | TGI (K-562 leukemia) [µM] | GI50 (M14 melanoma) [µM] | TGI (M14 melanoma) [µM] | GI50 (OVCAR-3 ovarian) [µM] | TGI (OVCAR-3 ovarian) | GI50 (SF-295 CNS) [µM] | TGI (SF-295 CNS) [µM] | GI50 (SK-OV-3 ovarian) [µM] | TGI (SK-OV-3 ovarian) [µM] | GI50 (UO-31 renal) [µM] | TGI (UO-31 renal) [µM] | TGI (NCI/ADR-RES ovarian) [µM] | GI50 (NCI/ADR-RES ovarian) [µM] |
| --- | --- | --- | --- | --- | --- | --- | --- | --- | --- | --- | --- | --- | --- | --- | --- | --- | --- | --- | --- | --- |
| O=C(Nc1sc2c(c1C(=O)O)CCCC2)c1ccco1 | 19.1 | > 50 | > 50 | > 50 | 36.3 | > 50 | 23.9 | > 50 | > 50 | > 50 | > 50 | > 50 µM | 26.3 | > 50 | > 50 | > 50 | > 50 | > 50 |  |  |
| O=C(Nc1ccc(Cl)cc1C(F)(F)F)C(=O)Nn1c(=S)[nH]c2ccccc2c1=O |  | > 100 |  | > 100 |  |  |  | > 100 |  | > 100 |  | > 100 µM |  | > 100 |  | > 100 |  | > 100 | > 100 |  |
| O=S(=O)(NC1=NCCN1C(=S)SN1CCn2c1nsc2=S)c1ccc(Cl)cc1 | 12.8 | 37.8 | 2.28 | 6.48 | 13.2 | 30.6 | 5.21 | > 100 | 12.9 | 32.5 | 2.54 | 12.2 µM | 16.7 | 34.8 |  |  | 2.28 | 5.92 | 60.8 | 23.1 |
| CC(C)(C)C#COC(=O)c1ccccc1 |  | > 100 |  |  |  | > 100 |  | > 100 |  | > 100 |  | > 100 µM |  | > 100 |  | > 100 |  | > 100 |  |  |
| O=C(c1ccccc1)C1N=NN(Cc2ccccc2[N+](=O)[O-])C1C(=O)c1ccccc1 (centres undefined) |  | > 100 |  |  |  | > 100 |  | > 100 |  | > 100 |  | > 100 µM |  | > 100 |  | > 100 |  | > 100 |  |  |
| O=c1c(Cc2ccccc2)c(O)cc2n1CCC2 |  | > 100 |  |  |  | > 100 |  | > 100 |  | > 100 |  | > 100 µM |  | > 100 |  | > 100 |  | > 100 |  |  |
| Cc1cccc(C)c1NC(=O)C(=O)Cc1nc2ccccc2s1 |  | > 100 |  |  |  | > 100 |  | > 100 |  | > 100 |  | > 100 µM |  | > 100 |  | > 100 |  | > 100 |  |  |
| COC(=O)C1CC(c2ccc(OC)c(OC)c2)OC1=O (mixture of isomers) |  | > 100 |  |  |  | > 100 |  | > 100 |  | > 100 |  | > 100 µM |  | > 100 |  | > 100 |  | > 100 |  |  |
| Cc1nnc2n1N=C(c1ccccc1)C(c1ccccc1)S2 (centres undefined) |  | > 100 |  |  |  | > 100 |  | > 100 |  | 46.5 |  | > 100 µM |  | > 100 |  | 68.2 |  | > 100 |  |  |
| c1ccc2c(c1)[nH]c1c2nc2ccccn21 |  | > 100 |  |  |  | > 100 |  | > 100 |  | > 100 |  | 59.8 µM and > 100 µM |  | > 100 |  | > 100 |  | > 100 |  |  |
| Cn1c(I)c(C#C[Si](C)(C)C)c(=O)n(C(=O)c2ccccc2)c1=O | 5.63 | 24.8 | 12.2 | 25.6 | 6.06 | 21.2 |  |  | 1.99 | 4.16 | 1.79 | 3.29 µM | 21.5 | 48.7 | 0.529 | 21.7 | 2.66 | 11.9 | 48.8 | 22.4 |
